ChEMBL document CHEMBL1158441 (Bioorg Med Chem Lett, 2009)
pIC50: −log10 of the molar value.

Experiments:
Sphingosine kinase 1 = Sphingosine kinase 1 (Homo sapiens, UniProt Q9NYA1); assay: Inhibition of SphK1
Sphingosine kinase 2 = target: T1, Sphingosine kinase 2 (Homo sapiens, UniProt Q9NRA0); assay: Inhibition of SphK2
T1 sequence (Q9NRA0 whole entry): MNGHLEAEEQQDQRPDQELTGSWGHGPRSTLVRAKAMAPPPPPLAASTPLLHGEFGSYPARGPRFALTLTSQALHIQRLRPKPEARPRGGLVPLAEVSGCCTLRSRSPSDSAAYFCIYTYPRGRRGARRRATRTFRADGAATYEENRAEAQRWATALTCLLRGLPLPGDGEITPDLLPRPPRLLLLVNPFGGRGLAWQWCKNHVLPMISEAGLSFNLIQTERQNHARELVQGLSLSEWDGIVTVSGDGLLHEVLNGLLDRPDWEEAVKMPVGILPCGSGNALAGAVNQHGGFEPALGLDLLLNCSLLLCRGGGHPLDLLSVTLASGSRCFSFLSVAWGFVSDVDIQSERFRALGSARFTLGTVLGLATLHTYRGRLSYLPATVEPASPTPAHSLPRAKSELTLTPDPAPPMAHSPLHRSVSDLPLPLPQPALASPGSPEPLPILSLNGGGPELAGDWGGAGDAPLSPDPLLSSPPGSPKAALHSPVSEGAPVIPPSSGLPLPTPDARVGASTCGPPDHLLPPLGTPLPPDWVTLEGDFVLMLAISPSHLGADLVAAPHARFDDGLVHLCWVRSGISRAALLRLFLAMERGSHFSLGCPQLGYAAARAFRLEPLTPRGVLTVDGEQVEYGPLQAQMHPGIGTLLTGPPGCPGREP

Sphingosine kinase 1, sequence (Q9NYA1 whole entry): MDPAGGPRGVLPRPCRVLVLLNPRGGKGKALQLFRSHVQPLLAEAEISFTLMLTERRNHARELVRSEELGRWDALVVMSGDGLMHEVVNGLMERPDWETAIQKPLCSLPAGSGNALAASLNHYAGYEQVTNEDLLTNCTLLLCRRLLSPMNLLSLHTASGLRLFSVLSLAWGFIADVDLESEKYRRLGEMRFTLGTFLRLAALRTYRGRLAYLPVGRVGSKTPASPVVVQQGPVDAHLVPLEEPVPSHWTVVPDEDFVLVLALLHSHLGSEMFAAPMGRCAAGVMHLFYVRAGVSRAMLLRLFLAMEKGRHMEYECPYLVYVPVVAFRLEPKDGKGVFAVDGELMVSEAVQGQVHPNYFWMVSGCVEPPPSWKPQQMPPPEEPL

Compound | pIC50 (Sphingosine kinase 1) | pIC50 (Sphingosine kinase 2)
N[C@@H](CO)[C@H](O)/C=C/CCCCCCc1ccc(I)cc1 | 5.40 | 5.14
N[C@@H](CO)[C@H](O)/C=C/CCCCCCCCc1ccc(I)cc1 | 6.30 | 5.24
N[C@@H](CO)[C@H](O)/C=C/CCCCCCCCCCCCCc1ccc(I)cc1 | 5.40 | 4.53
N[C@@H](CO)[C@H](O)/C=C/CCCCCCCCCc1ccc(I)cc1 | 5.56 | 4.78
N[C@@H](CO)[C@H](O)/C=C/CCCCCCCCCCCc1ccc(I)cc1 | 5.65 | 4.88
CCCCCCCCCCCCC/C=C/[C@@H](O)[C@H](CO)N(C)C [DIMETHYLSPINGOSINE] |  | < 4.10

The remaining lines, values ahead:

pIC50 (Sphingosine kinase 1) | pIC50 (Sphingosine kinase 2) | Compound
5.66 | 5.36 | N[C@@H](CO)[C@H](O)/C=C/CCCCCCCCCCc1ccc(I)cc1
 | 5.81 | CCCCCCCCCCCCC/C=C/[C@@H](O)[C@@H](N)CO [SPHINGOSINE]
